{"source": "ChEMBL document CHEMBL1201862", "about": "“PubChem BioAssay data set” (2004)", "key": {"[1]": {"target": "Serine/threonine-protein kinase pim-2 (Homo sapiens, UniProt Q9P1W9)", "format": "functional"}, "[2]": {"target": "Glycogen synthase kinase-3 alpha (Homo sapiens, UniProt P49840)", "format": "functional"}, "[3]": {"target": "Serine/threonine-protein kinase pim-1 (Homo sapiens, UniProt P11309)", "sequence (P11309 whole entry)": "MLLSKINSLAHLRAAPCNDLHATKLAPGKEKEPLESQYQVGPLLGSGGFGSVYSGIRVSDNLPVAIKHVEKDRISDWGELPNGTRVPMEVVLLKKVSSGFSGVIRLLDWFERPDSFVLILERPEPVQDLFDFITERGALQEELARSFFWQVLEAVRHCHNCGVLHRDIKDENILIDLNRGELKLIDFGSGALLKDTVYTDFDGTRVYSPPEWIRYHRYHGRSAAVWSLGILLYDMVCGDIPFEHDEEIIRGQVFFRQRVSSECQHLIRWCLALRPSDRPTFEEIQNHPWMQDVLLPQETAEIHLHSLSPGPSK", "format": "functional"}, "[4]": {"target": "Glycogen synthase kinase-3 beta (Homo sapiens, UniProt P49841)", "format": "functional"}, "[5]": {"target": "MAP/microtubule affinity-regulating kinase 3 (Homo sapiens, UniProt P27448)", "format": "functional"}, "[6]": {"target": "Vascular endothelial growth factor receptor 2 (Homo sapiens, UniProt P35968)", "format": "functional"}, "[7]": {"target": "Vascular endothelial growth factor receptor 3 (Homo sapiens, UniProt P35916)", "sequence (P35916 whole entry)": "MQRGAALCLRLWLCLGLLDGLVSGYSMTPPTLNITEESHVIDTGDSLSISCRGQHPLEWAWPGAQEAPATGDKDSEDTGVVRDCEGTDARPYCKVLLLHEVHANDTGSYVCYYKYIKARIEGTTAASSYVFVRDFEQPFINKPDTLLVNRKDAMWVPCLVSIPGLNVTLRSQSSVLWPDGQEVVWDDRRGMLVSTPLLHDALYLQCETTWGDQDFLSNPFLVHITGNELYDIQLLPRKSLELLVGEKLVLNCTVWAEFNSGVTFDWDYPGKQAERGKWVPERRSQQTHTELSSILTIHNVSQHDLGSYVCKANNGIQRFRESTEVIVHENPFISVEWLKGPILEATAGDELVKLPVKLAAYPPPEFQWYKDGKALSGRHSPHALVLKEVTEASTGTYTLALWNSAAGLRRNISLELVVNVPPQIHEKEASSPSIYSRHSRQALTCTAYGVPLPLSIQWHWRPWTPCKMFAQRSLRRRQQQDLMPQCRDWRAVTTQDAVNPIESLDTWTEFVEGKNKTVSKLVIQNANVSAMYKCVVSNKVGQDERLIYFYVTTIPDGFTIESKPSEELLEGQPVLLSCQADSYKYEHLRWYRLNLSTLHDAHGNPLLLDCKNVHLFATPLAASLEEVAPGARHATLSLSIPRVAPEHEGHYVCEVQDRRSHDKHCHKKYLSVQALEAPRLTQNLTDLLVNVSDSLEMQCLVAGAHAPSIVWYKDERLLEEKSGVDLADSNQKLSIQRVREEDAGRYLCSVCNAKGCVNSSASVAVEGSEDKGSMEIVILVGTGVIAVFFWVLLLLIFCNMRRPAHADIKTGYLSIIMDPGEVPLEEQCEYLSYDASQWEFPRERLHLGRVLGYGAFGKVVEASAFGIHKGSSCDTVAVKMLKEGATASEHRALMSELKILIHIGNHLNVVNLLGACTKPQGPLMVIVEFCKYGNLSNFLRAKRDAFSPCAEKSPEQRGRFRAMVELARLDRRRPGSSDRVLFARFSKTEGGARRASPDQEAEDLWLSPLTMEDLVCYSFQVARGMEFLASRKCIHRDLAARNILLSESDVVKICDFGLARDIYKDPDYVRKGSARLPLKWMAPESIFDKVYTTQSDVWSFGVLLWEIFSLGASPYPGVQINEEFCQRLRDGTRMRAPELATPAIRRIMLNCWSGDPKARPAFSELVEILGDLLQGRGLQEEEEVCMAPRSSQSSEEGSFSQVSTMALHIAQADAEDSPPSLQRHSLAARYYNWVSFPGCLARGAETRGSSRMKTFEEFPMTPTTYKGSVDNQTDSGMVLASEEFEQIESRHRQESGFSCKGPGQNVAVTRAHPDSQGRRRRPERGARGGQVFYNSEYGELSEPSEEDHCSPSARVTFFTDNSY", "format": "functional"}, "[8]": {"target": "Fibroblast growth factor receptor 1 (Homo sapiens, UniProt P11362)", "format": "functional"}, "[9]": {"target": "Serine/threonine-protein kinase 3 (Homo sapiens, UniProt Q13188)", "format": "functional"}, "[10]": {"target": "Dual specificity tyrosine-phosphorylation-regulated kinase 1A (Homo sapiens, UniProt Q13627)", "format": "functional"}, "[11]": {"target": "Serine/threonine-protein kinase PLK3 (Homo sapiens, UniProt Q9H4B4)", "sequence (Q9H4B4 whole entry)": "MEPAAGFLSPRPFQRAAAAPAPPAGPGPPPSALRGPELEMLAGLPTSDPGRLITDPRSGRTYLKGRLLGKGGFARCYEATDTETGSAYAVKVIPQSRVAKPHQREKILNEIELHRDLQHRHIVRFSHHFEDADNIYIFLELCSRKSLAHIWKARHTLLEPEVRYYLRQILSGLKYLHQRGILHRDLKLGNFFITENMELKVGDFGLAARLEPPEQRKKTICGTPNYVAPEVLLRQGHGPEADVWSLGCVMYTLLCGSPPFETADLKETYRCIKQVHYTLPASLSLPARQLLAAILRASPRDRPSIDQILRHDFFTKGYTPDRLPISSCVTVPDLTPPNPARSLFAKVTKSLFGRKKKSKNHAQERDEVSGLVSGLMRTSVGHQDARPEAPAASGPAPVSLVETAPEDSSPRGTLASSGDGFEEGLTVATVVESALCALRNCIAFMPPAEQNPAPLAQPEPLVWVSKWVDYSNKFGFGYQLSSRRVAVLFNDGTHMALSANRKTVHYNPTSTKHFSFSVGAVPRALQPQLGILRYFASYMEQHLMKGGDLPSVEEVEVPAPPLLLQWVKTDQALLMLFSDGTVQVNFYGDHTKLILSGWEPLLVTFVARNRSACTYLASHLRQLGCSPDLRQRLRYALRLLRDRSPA", "format": "functional"}, "[12]": {"target": "Mitogen-activated protein kinase 1 (Homo sapiens, UniProt P28482)", "sequence (P28482 whole entry)": "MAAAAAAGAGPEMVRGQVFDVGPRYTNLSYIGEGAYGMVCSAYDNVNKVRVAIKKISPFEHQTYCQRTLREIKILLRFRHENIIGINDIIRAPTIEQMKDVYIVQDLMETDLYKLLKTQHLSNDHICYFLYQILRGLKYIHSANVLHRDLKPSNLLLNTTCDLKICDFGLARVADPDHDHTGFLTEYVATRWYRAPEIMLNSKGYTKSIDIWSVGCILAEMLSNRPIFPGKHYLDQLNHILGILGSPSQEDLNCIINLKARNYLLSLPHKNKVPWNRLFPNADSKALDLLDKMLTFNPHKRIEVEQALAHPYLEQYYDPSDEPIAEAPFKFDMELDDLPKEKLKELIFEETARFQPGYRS", "format": "functional"}, "[13]": {"target": "Fibroblast growth factor receptor 3 (Homo sapiens, UniProt P22607)", "format": "functional"}, "[14]": {"target": "RAC-alpha serine/threonine-protein kinase (Homo sapiens, UniProt P31749)", "format": "functional"}, "[15]": {"target": "Non-receptor tyrosine-protein kinase TYK2 (Homo sapiens, UniProt P29597)", "format": "functional"}, "[16]": {"target": "Mitogen-activated protein kinase 9 (Homo sapiens, UniProt P45984)", "format": "functional"}, "[17]": {"target": "Serine/threonine-protein kinase MRCK alpha (Homo sapiens, UniProt Q5VT25)", "format": "functional"}, "[18]": {"target": "Serine/threonine-protein kinase PLK1 (Homo sapiens, UniProt P53350)", "format": "functional"}, "[19]": {"target": "Tyrosine-protein kinase JAK3 (Homo sapiens, UniProt P52333)", "format": "functional"}, "[20]": {"target": "High affinity nerve growth factor receptor (Homo sapiens, UniProt P04629)", "format": "functional"}, "[21]": {"target": "Rho-associated protein kinase 1 (Homo sapiens, UniProt Q13464)", "sequence (Q13464 whole entry)": "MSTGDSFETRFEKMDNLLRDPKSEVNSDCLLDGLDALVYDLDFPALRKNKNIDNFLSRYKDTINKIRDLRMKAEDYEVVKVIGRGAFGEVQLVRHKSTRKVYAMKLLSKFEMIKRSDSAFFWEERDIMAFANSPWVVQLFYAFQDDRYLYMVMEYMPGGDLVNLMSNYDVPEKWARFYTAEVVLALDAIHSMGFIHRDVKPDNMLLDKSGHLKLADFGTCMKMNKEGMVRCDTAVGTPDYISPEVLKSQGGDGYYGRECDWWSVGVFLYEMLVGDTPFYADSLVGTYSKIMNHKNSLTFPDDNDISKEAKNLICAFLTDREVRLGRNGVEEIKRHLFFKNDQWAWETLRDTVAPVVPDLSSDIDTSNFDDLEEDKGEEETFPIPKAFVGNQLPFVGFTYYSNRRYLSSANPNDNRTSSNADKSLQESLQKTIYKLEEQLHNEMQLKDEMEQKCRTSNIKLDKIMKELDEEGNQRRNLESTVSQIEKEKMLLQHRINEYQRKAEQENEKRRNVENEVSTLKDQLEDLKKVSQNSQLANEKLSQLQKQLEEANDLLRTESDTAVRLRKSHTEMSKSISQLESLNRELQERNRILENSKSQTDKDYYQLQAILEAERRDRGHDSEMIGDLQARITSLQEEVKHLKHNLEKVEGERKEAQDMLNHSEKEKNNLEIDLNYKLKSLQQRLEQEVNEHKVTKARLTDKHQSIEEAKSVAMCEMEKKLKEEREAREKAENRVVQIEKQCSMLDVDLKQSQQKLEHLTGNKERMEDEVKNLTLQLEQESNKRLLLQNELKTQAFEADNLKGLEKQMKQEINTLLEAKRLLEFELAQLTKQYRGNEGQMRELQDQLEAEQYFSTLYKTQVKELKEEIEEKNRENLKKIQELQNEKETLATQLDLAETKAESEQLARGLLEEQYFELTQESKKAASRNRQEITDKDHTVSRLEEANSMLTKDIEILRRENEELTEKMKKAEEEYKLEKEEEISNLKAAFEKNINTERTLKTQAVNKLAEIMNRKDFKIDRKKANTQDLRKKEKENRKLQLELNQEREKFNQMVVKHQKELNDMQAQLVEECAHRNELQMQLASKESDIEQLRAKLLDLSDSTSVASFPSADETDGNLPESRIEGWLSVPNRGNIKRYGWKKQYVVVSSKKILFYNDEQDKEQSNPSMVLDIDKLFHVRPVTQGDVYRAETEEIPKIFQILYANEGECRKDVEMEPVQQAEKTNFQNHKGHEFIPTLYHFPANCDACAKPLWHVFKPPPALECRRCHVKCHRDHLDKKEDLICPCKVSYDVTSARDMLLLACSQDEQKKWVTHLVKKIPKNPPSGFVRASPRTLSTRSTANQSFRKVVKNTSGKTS", "format": "functional"}, "[22]": {"target": "cAMP-dependent protein kinase catalytic subunit alpha (Homo sapiens, UniProt P17612)", "format": "functional"}, "[23]": {"target": "Serine/threonine-protein kinase D2 (Homo sapiens, UniProt Q9BZL6)", "sequence (Q9BZL6 whole entry)": "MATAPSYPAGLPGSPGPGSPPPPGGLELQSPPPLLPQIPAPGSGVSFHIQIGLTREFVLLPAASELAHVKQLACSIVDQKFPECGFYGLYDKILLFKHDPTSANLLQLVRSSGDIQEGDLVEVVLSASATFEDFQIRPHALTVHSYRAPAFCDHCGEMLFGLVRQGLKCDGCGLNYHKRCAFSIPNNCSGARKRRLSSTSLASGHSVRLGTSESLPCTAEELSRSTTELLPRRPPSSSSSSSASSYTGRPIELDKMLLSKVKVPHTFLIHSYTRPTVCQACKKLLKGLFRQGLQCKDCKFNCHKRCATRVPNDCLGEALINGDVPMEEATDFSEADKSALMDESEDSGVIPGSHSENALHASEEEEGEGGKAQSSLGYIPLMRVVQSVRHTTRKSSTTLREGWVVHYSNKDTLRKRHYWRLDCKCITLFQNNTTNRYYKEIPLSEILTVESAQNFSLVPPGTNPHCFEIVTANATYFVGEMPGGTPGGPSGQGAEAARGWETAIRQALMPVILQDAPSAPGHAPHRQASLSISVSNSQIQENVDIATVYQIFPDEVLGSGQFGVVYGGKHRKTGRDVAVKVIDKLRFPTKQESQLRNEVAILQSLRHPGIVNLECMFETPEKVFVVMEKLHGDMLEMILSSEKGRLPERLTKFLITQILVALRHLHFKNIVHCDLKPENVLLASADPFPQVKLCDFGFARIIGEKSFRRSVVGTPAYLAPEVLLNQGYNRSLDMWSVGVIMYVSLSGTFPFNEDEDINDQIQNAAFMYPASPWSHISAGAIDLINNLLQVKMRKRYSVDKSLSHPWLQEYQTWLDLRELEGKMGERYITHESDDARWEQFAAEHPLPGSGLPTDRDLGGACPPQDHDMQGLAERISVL", "format": "functional"}, "[24]": {"target": "Interleukin-1 receptor-associated kinase 4 (Homo sapiens, UniProt Q9NWZ3)", "format": "functional"}, "[25]": {"tested_on": "BJ", "assay": "growth inhibition of engineered Ras-driven BJ cells – cell-based, alamar blue fluorescence, cherrypicked samples, dose response (AID 2631);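 also: confirmatory dose-response assay in RAS-dependent BJ fibroblasts engineered with TERT, LT and ST, with cytotoxicity read by fluorescence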", "format": "functional", "settings": "Homo sapiens"}, "[26]": {"tested_on": "HEK293", "assay": "optical interference in Abeta FP readout, dose response, artefact control for IDE activator project, biochemical, fluorescence polarization (AID 588442)", "format": "functional, cell-based", "settings": "Homo sapiens"}, "[27]": {"target": "T1, Ubiquitin-conjugating enzyme E2 N (Homo sapiens, UniProt P61088)", "T1 sequence (P61088 whole entry)": "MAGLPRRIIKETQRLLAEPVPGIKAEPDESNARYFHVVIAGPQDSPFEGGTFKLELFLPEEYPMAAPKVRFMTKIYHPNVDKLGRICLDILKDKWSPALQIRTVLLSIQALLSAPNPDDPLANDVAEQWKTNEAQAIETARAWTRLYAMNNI", "format": "functional"}, "[28]": {"assay": "viability loss in HeLa cells – cytotoxicity control for MgcRacGAP inhibitor project, dose response (AID 624300)", "format": "functional"}, "[29]": {"target": "Small ubiquitin-related modifier 1 (Homo sapiens, UniProt P63165)", "sequence (P63165 whole entry)": "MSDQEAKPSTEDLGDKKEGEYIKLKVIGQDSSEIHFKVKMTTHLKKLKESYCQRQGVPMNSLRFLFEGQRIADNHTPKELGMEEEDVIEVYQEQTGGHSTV", "assay": "SUMO1 protein-protein binding blockers, potency – biochemical, FRET, dose response (AID 624383)", "format": "functional", "settings": "read-out: IC50_Mean"}, "[30]": {"target": "T2, Insulin-degrading enzyme (Homo sapiens, UniProt P14735)", "T2 sequence (P14735 whole entry)": "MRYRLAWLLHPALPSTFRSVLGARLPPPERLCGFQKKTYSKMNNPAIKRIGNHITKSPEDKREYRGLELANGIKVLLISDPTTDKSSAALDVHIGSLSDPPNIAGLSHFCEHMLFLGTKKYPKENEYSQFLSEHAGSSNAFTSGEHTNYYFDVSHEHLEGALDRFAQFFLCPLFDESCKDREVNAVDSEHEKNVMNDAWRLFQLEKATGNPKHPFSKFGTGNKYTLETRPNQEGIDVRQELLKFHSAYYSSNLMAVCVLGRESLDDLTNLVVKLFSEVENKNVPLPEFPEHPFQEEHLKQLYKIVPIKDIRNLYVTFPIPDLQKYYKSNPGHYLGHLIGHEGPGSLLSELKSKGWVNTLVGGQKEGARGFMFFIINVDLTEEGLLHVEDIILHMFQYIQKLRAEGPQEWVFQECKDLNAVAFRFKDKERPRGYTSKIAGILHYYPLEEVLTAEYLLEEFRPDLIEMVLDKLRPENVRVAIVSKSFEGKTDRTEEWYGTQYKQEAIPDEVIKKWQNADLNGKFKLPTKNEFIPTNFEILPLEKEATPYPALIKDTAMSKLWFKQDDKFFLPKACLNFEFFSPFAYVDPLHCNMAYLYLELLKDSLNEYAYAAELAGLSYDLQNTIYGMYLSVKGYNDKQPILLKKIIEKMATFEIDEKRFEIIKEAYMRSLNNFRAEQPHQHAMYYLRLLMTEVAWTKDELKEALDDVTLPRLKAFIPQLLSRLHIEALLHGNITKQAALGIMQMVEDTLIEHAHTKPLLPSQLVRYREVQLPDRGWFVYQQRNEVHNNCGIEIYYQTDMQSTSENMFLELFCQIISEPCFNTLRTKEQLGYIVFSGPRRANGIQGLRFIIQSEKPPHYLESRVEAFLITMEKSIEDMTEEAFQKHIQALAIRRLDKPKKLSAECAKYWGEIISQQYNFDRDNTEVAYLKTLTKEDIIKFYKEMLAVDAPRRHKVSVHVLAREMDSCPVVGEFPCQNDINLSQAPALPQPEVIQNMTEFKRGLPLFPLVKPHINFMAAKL", "assay": "cellular IDE activation of Abeta substrate cleavage – fluorescence polarization, HEK cells, dose response (AID 588439)", "format": "functional, cell-based"}, "[31]": {"assay": "DRD fibroblast viability loss – cell-based, non-viral oncogenic, luminescence, dose response (AID 1934)", "format": "functional", "settings": "Homo sapiens"}}, "note": "Activity calls are given as the source filed them."}
{"smiles": "CC(=NNC(=N)N)c1cc(NC(=O)NCCCCCCNC(=O)Nc2cc(C(C)=NNC(=N)N)cc(C(C)=NNC(=N)N)c2)cc(C(C)=NNC(=N)N)c1", "values": [{"measurement": "Ki", "setting": "[1]", "value": "0.2 µM (active)"}, {"measurement": "Ki", "setting": "[2]", "value": "> 7.94 µM (inactive)"}, {"measurement": "Ki", "setting": "[3]", "value": "0.158 µM (active)"}, {"measurement": "Ki", "setting": "[4]", "value": "> 6.31 µM (inactive)"}, {"measurement": "Ki", "setting": "[5]", "value": "2 µM (active)"}, {"measurement": "Ki", "setting": "[6]", "value": "> 7.94 µM (inactive)"}, {"measurement": "Ki", "setting": "[7]", "value": "> 6.31 µM (inactive)"}, {"measurement": "Ki", "setting": "[8]", "value": "> 5.01 µM (inactive)"}, {"measurement": "Ki", "setting": "[9]", "value": "0.501 µM (active)"}, {"measurement": "Ki", "setting": "[10]", "value": "> 6.31 µM (inactive)"}, {"measurement": "Ki", "setting": "[11]", "value": "6.31 µM (active)"}, {"measurement": "Ki", "setting": "[12]", "value": "> 7.94 µM (inactive)"}, {"measurement": "Ki", "setting": "[13]", "value": "> 2 µM (inactive)"}, {"measurement": "Ki", "setting": "[14]", "value": "0.398 µM (active)"}, {"measurement": "Ki", "setting": "[15]", "value": "2 µM (active)"}, {"measurement": "Ki", "setting": "[16]", "value": "> 3.98 µM (inactive)"}, {"measurement": "Ki", "setting": "[17]", "value": "0.316 µM (active)"}, {"measurement": "Ki", "setting": "[18]", "value": "> 7.94 µM (inactive)"}, {"measurement": "Ki", "setting": "[19]", "value": "1 µM (active)"}, {"measurement": "Ki", "setting": "[20]", "value": "> 2.51 µM (inactive)"}, {"measurement": "Ki", "setting": "[21]", "value": "0.501 µM (active)"}, {"measurement": "Ki", "setting": "[22]", "value": "> 7.94 µM (inactive)"}, {"measurement": "Ki", "setting": "[23]", "value": "0.631 µM (active)"}, {"measurement": "Ki", "setting": "[24]", "value": "1.58 µM (active)"}]}
{"smiles": "Cc1cc(N)c2cc(NC(=O)/C=C/c3ccccc3Cl)ccc2n1", "values": [{"measurement": "EC50", "setting": "[25]", "value": "0.704 µM (inconclusive)"}, {"measurement": "EC50", "setting": "[26]", "value": "> 54.7 µM (inactive)"}, {"measurement": "IC50", "setting": "[27]", "value": "3.5 µM (active)"}, {"measurement": "CC50", "setting": "[28]", "value": "5.35 µM (active)"}, {"measurement": "IC50", "setting": "[29]", "value": "7.51 µM (active)"}, {"measurement": "EC50", "setting": "[30]", "value": "> 54.7 µM (inactive)"}, {"measurement": "EC50", "setting": "[31]", "value": "2.88 µM (active)"}]}
